The source of these data is patent US5296481A, “Treatment process for promoting weight loss employing a substituted Δ 5” (Humanetics Corporation, priority 1992, dated 1994).

For test [1], the system named is Mitochondrial G3P-DH (glycerol 3-phosphate dehydrogenase), rat liver. As to the kind of experiment: Mitochondrial G3P-DH activity in liver of steroid-fed rats (enzyme induction in rat liver by C19 steroids). The class given is in vivo, rat (male Sprague Dawley). Conditions: 6 days, rat liver mitochondria. An excerpt:
(§1) Administration of Hormone: Male Sprague Dawley rats weighing 125-150 gm were obtained from Sasco Inc. of Oregon, Wis. The rats were allowed free access to water and Purina Rat Chow pellets for the first day after arrival Administration of the steroids began on day two. The steroids were either administered orally (combined with the Purina Rat Chow) or injected intraperitoneal as set forth in Table 1 for 6 days.
(§2) Preparation of Liver Mitochondria and Cytosol. The treated rats were sacrificed by decapitation after 6 days of treatment. The livers were excised, placed in 10 ml of a buffer consisting of 250 mM mannitol, 70 mM sucrose, and 3 mM Hepes (hereinafter MSH buffer) at pH 7.4, weighed, removed from the buffer, minced with scissors, washed with MSH buffer, suspended in MSH buffer at a ratio of 1 gram minced liver to 5 ml MSH buffer, and homogenized with a Potter-Elvehjem rotary homogenizer.
The Mitochondria fraction was prepared by the method described in Johnson, D. and Lardy, H. A., Methods Enzymology, vol. 10, pp 94-96 (1967) which is hereby incorporated by reference. Briefly, liver homogenate was centrifuged in a Beckman Model J2-21 centrifuge, JA-20 rotor at 750 g for 10 minutes and the resulting supernatant solution centrifuged at 15,000 g for an additional 10 minutes. The resulting mitochondrial pellets were washed twice with MSH buffer, resuspended in 0.8 to 1 ml of a 35 wt % aqueous glycerol solution, and stored at -70° C.
(§3) Protein concentrations in the resultant preparations were determined by the Biuret method described in Layne E., Methods Enzymology, vol. 3, pp 450451 (1957) which is hereby incorporated by reference. Briefly, the protein concentrations were determined by treating a dilute protein solution with copper tartrate solution and measuring the optical density at 540 nm.
Enzyme Assays. Mitochondrial G3P-DH activity was measured by the method described in Wernette, M. E., Ochs, R. S., and Lardy, H. A., J. Biol. Chem., vol. 256, pp 12767-12771 (1981) which is a modified version of the method described in Gardner, R. S., Anal. Biochem., vol. 59, pp 272-276 (1974). Both references are hereby incorporated by reference. Briefly, aliquots of the previously prepared mitochondria containing 0.1 to 0.2 mg of protein were incubated in a test tube containing 50 mM sn-glycerol-3-P,50 mM potassium phosphate (pH 7.0), 1 mM KCN, and 0.2% p-iodonitrotetrazolium violet in a total volume of 0.4 ml for 30 min at 37° C. The incubating mitochondria were continuously agitated during the incubation period by a Dubnoff shaker agitated at 100 cycles/min. Incubation was ceased by the addition of 0.6 ml of 1M acetic acid to the test tube. The iodoformazan formed during the incubation period was extracted into 2 ml of ethyl acetate by adding the ethyl acetate to the test tube, mixing thoroughly, and then decanting the ethyl acetate containing the iodoformazan from the test tube. The optical densities of the iodoformazan containing ethyl acetate layers were read at 490 nm by means of an On Line Instrument Systems, Model 3820 Data System, Spectrophotometry, Cary--15, Version 4 08. An extinction coefficient value of 2.01×10^4 /(M cm) for the iodoformazan product in ethyl acetate was used to calculate enzyme activities.

Test [2] deals with Cytosolic malic enzyme, rat liver. As to the kind of experiment: Cytosolic malic enzyme activity in liver of steroid-fed rats (enzyme induction in rat liver by C19 steroids). It counts as in vivo, rat (male Sprague Dawley). Conditions: 6 days, rat liver cytosol.
Text: as §1, §2
The Cytosolic fraction was obtained by recentrifuging the previously centrifuged supernatant solution at 100,000 g for 30 minutes in a Beckman Model L2 ultracentrifuge, type 40 rotor. The resultant supernatant solution was stored at -70° C.
as §3
Cytosolic malic enzyme activity was measured in accordance with the method described in Hsu, R. Y. and Lardy, H. A., Methods Enzymol., vol. 8, pp 230-235 (1967). Briefly, aliquots of the previously prepared cytosol containing 0.1 to 0.5 mg of protein were incubated in a test tube containing 0.8 mM malate, 67 mM triethanolamine buffer (pH 7.4), 4 mM MnCl2, and 0.2 mM NADP in a total volume of 1 ml for 3 min at 26° C. Activity of malic enzyme was calculated from the rate of change in optical density measured at 340 nm from 0.5 to 2 minutes with an On Line Instrument Systems, Model 3820 Data System, Spectrophotometry, Cary--15, Version 4.08.

`C[C@]12CC[C@H](O)CC1=CC(=O)[C@@H]1[C@@H]2CC[C@]2(C)C(=O)CC[C@@H]12` [7-keto DHEA, Δ5-Androstene-3β-ol-7,17-dione]: the “G3P-DH (% control)” value turned out to be 183 % control in test [1] (0.01 wt % steroid in diet), 439 % control in test [1] (0.05 wt % steroid in diet), 224 % control in test [1] (0.0575 wt % steroid in diet) and 220 % control in test [1] (0.1 wt % steroid in diet). The “Malic Enzyme (% control)” value was 229 % control in test [2] (0.01 wt % steroid in diet), 449 % control in test [2] (0.05 wt % steroid in diet), 341 % control in test [2] (0.0575 wt % steroid in diet) and 350 % control in test [2] (0.1 wt % steroid in diet).
For `C[C@]12CC[C@H](O)CC1=CC[C@@H]1[C@@H]2CC[C@]2(C)C(=O)CC[C@@H]12` [DHEA, Δ5-androstene 3β-hydroxy, 17-one, reference compound], the “G3P-DH (% control)” value in test [1] (0.01 wt % steroid in diet) is 139 % control; in test [1] (0.05 wt % steroid in diet), 251 % control; in test [1] (0.1 wt % steroid in diet), 265 % control; in test [1] (0.2 wt % steroid in diet), 380 % control. The “Malic Enzyme (% control)” value was found to be 64 % control in test [2] (0.01 wt % steroid in diet), 337 % control in test [2] (0.05 wt % steroid in diet), 394 % control in test [2] (0.1 wt % steroid in diet) and 512 % control in test [2] (0.2 wt % steroid in diet).
Consider `C[C@]12CC[C@H]3[C@@H]([C@H](O)C=C4C[C@@H](O)CC[C@@]43CO)[C@@H]1CCC2=O` [Δ5 Androstene 3β,7α,19-ol-17-one, reference compound], for which the “G3P-DH (% control)” value in test [1] (0.1 wt % steroid in diet) was determined as 117 % control. For the same compound, the “Malic Enzyme (% control)” value in test [2] (0.1 wt % steroid in diet) was determined as 118 % control.
Regarding `C[C@]12CC[C@H](O)CC1=C[C@@H](O)[C@@H]1[C@@H]2CC[C@]2(C)C(=O)CC[C@@H]12` [Δ5 Androstene 3β,7α-ol-17-one, Δ5-Androstene 3β,7α-diol-17-one], the “G3P-DH (% control)” value in test [1] (0.033 wt % steroid in diet) was found to be 308 % control; in test [1] (0.05 wt % steroid in diet), 292 % control. Further, the “Malic Enzyme (% control)” value is given as 374 % control in test [2] (0.033 wt % steroid in diet) and 423 % control in test [2] (0.05 wt % steroid in diet).
Regarding `C[C@]12CC[C@H]3[C@@H]([C@H](O)C=C4C[C@@H](O)CC[C@@]43C)[C@@H]1CC[C@@H]2O` [Δ5-Androstene 3β,7α,17β-triol], the “G3P-DH (% control)” value in test [1] (0.01 wt % steroid in diet) was found to be 99 % control; in test [1] (0.1 wt % steroid in diet) it was 227 % control. Moreover, the entries for the “Malic Enzyme (% control)” value in test [2] (0.01 wt % steroid in diet) and in test [2] (0.1 wt % steroid in diet) were 108 % control and 611 % control, respectively.
With `C[C@]12CC[C@H]3[C@@H](C(=O)C=C4C[C@@H](O)CC[C@@]43C)[C@@H]1CC[C@@H]2O` [Δ5-Androstene 3β,17β-diol-7-one, Δ5-Androstene-3β,17β-diol-7-one], the results for the “G3P-DH (% control)” value in test [1] (0.01 wt % steroid in diet), in test [1] (0.05 wt % steroid in diet) and in test [1] (0.1 wt % steroid in diet) were 130 % control, 360 % control and 286 % control, respectively. The “Malic Enzyme (% control)” value in test [2] (0.01 wt % steroid in diet) is 175 % control; in test [2] (0.05 wt % steroid in diet), 305 % control.
Turning to `CC(=O)O[C@H]1CC[C@@]2(C)C(=CC(=O)[C@@H]3[C@@H]2CC[C@]2(C)C(=O)CC[C@@H]32)C1` [Δ5-Androstene-3β-ol-7,17-one acetate, Δ5-Androstene 3β-acetoxy-7,17-dione], the “G3P-DH (% control)” value in test [1] (0.115 wt % steroid in diet) came out at 261 % control. The “Malic Enzyme (% control)” value in test [2] (0.115 wt % steroid in diet) stood at 447 % control.
With `CC1C=C2C[C@@H](O)CC[C@]2(C)[C@H]2CC[C@]3(C)C(=O)CC[C@H]3[C@H]12` (stereo partly drawn) [Δ5-Androstene-3β-ol-7-methyl-17-one, reference compound], the “G3P-DH (% control)” value in test [1] (0.1 wt % steroid in diet) amounted to 91 % control. Besides, the “Malic Enzyme (% control)” value in test [2] (0.1 wt % steroid in diet) is reported as 121 % control.
Consider `CC(=O)O[C@H]1CC[C@@]2(C)C(=CC(=O)[C@H]3[C@@H]4CC[C@H](OC(C)=O)[C@@]4(C)CC[C@@H]32)C1` [Δ5-androstene 3β,17β-diol-7-one diacetate], for which the “G3P-DH (% control)” value was 173 % control in test [1] (0.01 wt % steroid in diet) and 232 % control in test [1] (0.13 wt % steroid in diet). Also, the “Malic Enzyme (% control)” value worked out at 119 % control in test [2] (0.01 wt % steroid in diet) and 452 % control in test [2] (0.13 wt % steroid in diet).
